The numbers were not newly measured in paper PMC5459304 (International journal of toxicology, 2017), which cites them from elsewhere.

This data set deals with patients.

Structures are written as SMILES.

In the case of `CC1(C)C(/C=C/C=C/C=C/C=C2\N(CCCCS(=O)(=O)O)c3ccc4ccccc4c3C2(C)C)=[N+](CCCCS(=O)(=O)[O-])c2ccc3ccccc3c21` [ICG, indocyanine green], the severe reaction rate (1 severe reaction among 1226 patients) is 0.05%. The number of reactions (1226 patients) is recorded as 7 reactions out of 1923 ICG angiograms. The adverse reaction rate (1923 ICG angiograms in 1226 patients) was 0.3%. The “number of severe reactions” value (ICG angiograms from Japanese ophthalmologists) was 2 severe reactions among 2820 patients.
